# In US8507464B2, “Phosphoramidate alkylator prodrugs” (Threshold Pharmaceuticals, Inc., priority 2005, dated 2013):
# Like-named read-outs stand apart in the source and are kept apart here.
# Tests used:
# HT29 cells = assay: Clonogenic assay - oxygen dependence; conditions: Homo sapiens
# HT29 xenograft = assay: HT-29 xenograft mouse model with CDDP (Example 52); format: in vivo; conditions: for % Inhibition vs Group 1 / % Inhibition vs Group 2: tumor volumes at day 25; for % Inhibition vs Group 1: vs vehicle group, regimen per table
# Experimental: Female CB17/SCID mice (purchased from Charles River, Cambridge, Mass.), 7-8 weeks of age, were allowed to acclimatize for at least three days, and handled under pathogen-free conditions. Human colon carcinoma cell line HT29 was obtained from the American Type Culture Collection. The cell lines were cultured and harvested as described in Example 47 and inoculated at 3×10^6 cells/animal in the peritoneal subcutaneous space. When the tumors grew to an average volume of 100 mm^3 (day 8), each group of mice (ten per group) was administered, for three weeks, as tabulated in the table below: Compound 25 in saline, administration route—i.p., administrated 2 h before CDDP on the days the combination therapy is scheduled and CDDP (in saline, IV).
# The body weight and tumor volume were determined as described in Example 47. Data are based on tumor volumes at day 25 when tumors in the vehicle group had reached sufficient size to require that the mice be sacrificed.
# HCT116 cells = assay: Multilayered cell culture (MCC) assay, inhibition of BrdU incorporation; format: cell-based; conditions: for IC50: Homo sapiens
# Experimental: MCCs were incubated with oxygenated media (20% O2 & 5% O2) or hypoxic media (approximately 0% O2) and the test compound was exposed from one side (exposed surface, normoxic side) while the other side was temporarily closed off (far side, hypoxic side). When MCC's are incubated in media at 20% O2 or 5% O2 a gradient in oxygen develops from the surface exposed to the media towards the far surface of the culture. The furthest 50 μm of tissue becomes depleted of oxygen. The extent of O2 depletion is greater with 5% than the 20% O2 gassed media; incubation with 5% O2 reflects the in vivo situation most closely. Incubating MCCs with media at 0% O2 models perfusion limited hypoxia, where tumor blood vessels become completely depleted of oxygen and test compound must penetrate extensive distances to reach all cells. This situation therefore poses a greater barrier to drug penetration, if binding of activated drug acts to limit its penetration.
# MCC based experiments were carried out with media gassed with 0, 5 or 20% O2 for 45 minutes prior to and during incubation with the test compound. HCT116 cells were grown to a thickness of 150 μm on a solid support and one side of the culture was clamped off to develop diffusion limited hypoxia. […] The cultures were incubated for a second hour in fresh media at 20% O2 and removed from the apparatus and returned to a normal growth chamber, where media flows over both sides of the MCC. Cultures were incubated for 24 hours prior to BrdUrd labeling and subsequent cryosectioning. BrdUrd labeling on the exposed and far sides of the MCC were analyzed using immunohistochemical staining, microscope imaging and computer image analysis to assess the effect of Compound 25 on cell proliferation.
# H460 xenograft = H460 xenograft in nude mice, ip bolus or ip infusion with Cisplatin (Example 54); format: in vivo, mouse; conditions: alone or in combination with CDDP
# Experimental: Example 54 describes efficacy of Compound 25 via an ip bolus injection or ip infusion alone or in combination with Cisplatin in the H460 xenograft mouse model. Female Nu-Foxn1^nu homozygous nu/nu mice (purchased from Charles River, Cambridge, Mass.), 6 weeks of age, were allowed to acclimatize for at least three days, and handled under pathogen-free conditions. Human H460 cells were obtained from the American Type Culture Collection. The cell lines were cultured and harvested as described in Example 47 and inoculated at 3×10^6 cells/animal in the peritoneal subcutaneous space. When the tumors grew to an average volume of 100 mm^3 (day 8), each group of mice (ten per group) was administered, for three weeks, as tabulated in the table below: Compound 25 (formulated as a 15 mg/ml saline solution, administration route—i.p., administrated 2 h before CDDP on the days the combination therapy is scheduled) and CDDP in saline, IV.
# The body weight and tumor volume was determined as described in Example 47.
# NCI H460 xenograft = assay: H460 xenograft mouse model, 150 mg/kg weekly with CDDP (Example 53); format: in vivo
# Experimental: Female CB17/SCID mice (purchased from Charles River, Cambridge, Mass.), 7-8 weeks of age, were allowed to acclimatize for at least three days, and handled under pathogen-free conditions. Human non-small cell lung cell line NCI H460 was obtained from the American Type Culture Collection. The cell lines were cultured and harvested as described in Example 47 and inoculated at 3×10^6 cells/animal in the peritoneal subcutaneous space. When the tumors grew to an average volume of 100 mm^3, treatment was initiated in which groups of 10 mice received vehicle (Group 1), CDDP at 6 mg/kg (IV one time, Group 2), Compound 25 at 150 mg/kg in saline, once a week for two weeks (i.p., Group 3), or the combination of the two agents (Group 4).
# Irs1SF = assay: Clonogenic survival - DNA mutant repair cells; conditions: Cricetulus griseus
# CYP2C9 = CYP2C9 (Homo sapiens, UniProt P11712); assay: Cytochrome P450 inhibition; conditions: pH 7.4
# CYP2C9, sequence (P11712 whole entry): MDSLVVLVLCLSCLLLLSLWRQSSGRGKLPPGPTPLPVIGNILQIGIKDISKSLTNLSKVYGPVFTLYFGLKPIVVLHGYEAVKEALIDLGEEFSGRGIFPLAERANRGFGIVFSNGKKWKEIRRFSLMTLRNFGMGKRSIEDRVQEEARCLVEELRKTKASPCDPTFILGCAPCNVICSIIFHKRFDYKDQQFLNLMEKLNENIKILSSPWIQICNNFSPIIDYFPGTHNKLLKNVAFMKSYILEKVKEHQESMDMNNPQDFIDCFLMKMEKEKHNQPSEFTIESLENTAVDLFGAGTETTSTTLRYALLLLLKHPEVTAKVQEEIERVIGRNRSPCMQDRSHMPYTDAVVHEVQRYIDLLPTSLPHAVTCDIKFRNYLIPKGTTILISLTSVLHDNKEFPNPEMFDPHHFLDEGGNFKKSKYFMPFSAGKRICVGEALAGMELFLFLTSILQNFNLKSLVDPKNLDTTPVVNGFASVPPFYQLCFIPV
# Experimental: (§1) A control reaction with no inhibitor was also prepared. After a suitable incubation at 37° C., the reactions were terminated by the addition of […] of 10% formic acid in water ([…] of acetonitrile for 2C19). […] Each assay was performed in duplicate.
# [1] = target: CYP2C19 (printed CYPC219) (Homo sapiens, UniProt P33261); assay: Cytochrome P450 inhibition; conditions: pH 7.4, probe (S)-mephenyloin
# CYP2C19 (printed CYPC219), sequence (P33261 whole entry): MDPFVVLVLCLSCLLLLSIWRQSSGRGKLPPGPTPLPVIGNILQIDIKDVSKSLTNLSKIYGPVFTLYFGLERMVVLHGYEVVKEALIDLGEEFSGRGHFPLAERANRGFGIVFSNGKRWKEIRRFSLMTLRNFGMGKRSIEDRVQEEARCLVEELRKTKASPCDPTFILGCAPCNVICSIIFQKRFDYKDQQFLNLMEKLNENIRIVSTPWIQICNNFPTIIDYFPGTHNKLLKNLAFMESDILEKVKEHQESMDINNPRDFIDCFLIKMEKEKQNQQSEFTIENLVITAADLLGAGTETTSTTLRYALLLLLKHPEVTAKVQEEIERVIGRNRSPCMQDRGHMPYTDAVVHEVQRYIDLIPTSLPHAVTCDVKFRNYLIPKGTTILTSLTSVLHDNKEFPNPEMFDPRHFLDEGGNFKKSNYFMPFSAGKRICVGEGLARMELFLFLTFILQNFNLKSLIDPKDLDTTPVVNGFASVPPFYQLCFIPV
# Experimental: as §1
# HT29 = assay: Clonogenic assay, hypoxia vs normoxia (Table 1B); conditions: Homo sapiens, HT-29, read-out: HT29 C H (clonogenic IC90, hypoxia)
# [2] = Group 7, Compound 25 i.p. in combination with CDDP IV
# [3] = Group 8, Compound 25 i.p. in combination with CDDP IV
# [4] = Group 9, Compound 25 i.p. in combination with CDDP IV
# [5] = Group 10, Compound 25 i.p. in combination with CDDP IV
smiles,measurement,setting,value
Cn1c(COP(=O)(NCCBr)NCCBr)cnc1[N+](=O)[O-] [Compound 25],IC90,"HT29 cells; HT-29, read-out: IC90 HT29 0.6% O2",3000 nM
same,IC90,"HT29 cells; HT-29, read-out: IC90 HT29 Air",40000 nM
same,IC90,"HT29 cells; HT-29, read-out: IC90 HT29 N2",200 nM
same,% Inhibition vs Group 1,"HT29 xenograft; Group 3, Compound 25 in saline i.p.",28.2%
same,% Inhibition vs Group 1,"HT29 xenograft; Group 4, Compound 25 in saline i.p.",30.1%
same,% Inhibition vs Group 1,"HT29 xenograft; Group 5, Compound 25 in saline i.p.",31.3%
same,% Inhibition vs Group 1,"HT29 xenograft; Group 6, Compound 25 in saline i.p.",48.1%
same,% Inhibition vs Group 2,HT29 xenograft; [2],30.8%
same,% Inhibition vs Group 1,HT29 xenograft; [2],50.7%
same,% Inhibition vs Group 2,HT29 xenograft; [3],27.5%
same,% Inhibition vs Group 1,HT29 xenograft; [3],44.2%
same,% Inhibition vs Group 2,HT29 xenograft; [4],21.5%
same,% Inhibition vs Group 1,HT29 xenograft; [4],36.2%
same,% Inhibition vs Group 2,HT29 xenograft; [5],33.2%
same,% Inhibition vs Group 1,HT29 xenograft; [5],51.8%
same,tumor growth,"HT29 xenograft; monotherapy 50 and 100 mg/kg/day, various regimens, saline",inhibition of tumor growth
same,body weight,"HT29 xenograft; more so in combination groups, recovered",modest body weight loss
same,fold reduction in exposure to the hypoxic side under 0% O2 relative to 5% O2,HCT116 cells; 0% O2 vs 5% O2,Approximately 3 fold
same,fold more effective at inhibiting BrdU incorporation on the hypoxic side compared to the normoxic side,HCT116 cells; 5% O2,10 fold
same,fold less compound required on the far (hypoxic) side compared to the exposed (normoxic) side,HCT116 cells; 20% O2,5 fold
same,IC50,"HCT116 cells; HCT-116, read-out: IC50 (BrdU), Hypoxic side, 5% O2",700 nM
same,IC50,"HCT116 cells; HCT-116, read-out: IC50 (BrdU), Hypoxic side, 20% O2",2600 nM
same,IC50,"HCT116 cells; HCT-116, read-out: IC50 (BrdU), Normoxic side, 5% O2",8000 nM
same,IC50,"HCT116 cells; HCT-116, read-out: IC50 (BrdU), Normoxic side, 20% O2",> 10000 nM
same,IC50,"HCT116 cells; HCT-116, read-out: IC50 (inhibit BrdU incorporation by 50%), Hypoxic side, 0% O2",~1100 nM
same,IC50,"HCT116 cells; HCT-116, read-out: IC50 (BrdU), Normoxic side, 0% O2",~1700 nM
same,efficacy of continuous application,H460 xenograft,efficacious
same,body weight,NCI H460 xenograft; 150 mg/kg once a week,Little change in body weight
same,tumor growth during the two week period of dosing,"NCI H460 xenograft; 150 mg/kg once a week for two weeks, i.p.",complete inhibition of tumor growth
same,IC90,Irs1SF; read-out: IC90 Irs1SF Air,20000 nM
same,IC90,Irs1SF; read-out: IC90 Irs1SF N2,20 nM
same,IC50,CYP2C9,~10000 nM
same,IC50,[1],> 50000 nM
Cn1c(COP(=O)(NCCCl)NCCCl)cnc1[N+](=O)[O-] [Compound 36],IC90,HT29,3000 nM
